# Measurements taken from PubChem BioAssay AID623872 (Sanford-Burnham Center for Chemical Genomics, 2012).
# Calls of active or inactive are those of the source.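 How the source made its calls: active means IC50 at or below 20 µM in the dose response; inactive means the rest.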
# Tested on: HL-1 cardiomyocytes, H2O2 protection, ATPLite, 2 h
# Assay: HL-1 cardiomyocyte survival under H2O2 injury – cell-based, hydrogen peroxide, ATP luminescence, SAR follow-up (AID 623872)
row,Structure (SMILES),IC50
1,COc1cccc(NC(=O)CN(C)C(=O)c2cc(-c3cccs3)nn2-c2ccccc2)c1,> 79 µM (inactive)
2,COc1ccc(-c2cc(C(=O)N(C)Cc3ccc(OC)c(OC)c3OC)c3ccccc3n2)cc1OC,> 79 µM (inactive)
3,COc1ccc2cc(C(=O)N3CCN(S(=O)(=O)c4ccc(C)cc4C)CC3)c(C)nc2c1,> 79 µM (inactive)
4,NC(=O)c1nsc(C(=O)N(Cc2ccccc2)C(C(=O)NCc2ccc(F)cc2)c2ccc(O)cc2)c1N (stereo not given),> 79 µM (inactive)
5,COc1ccc(N2C(=O)c3ccccc3N3C(=O)c4c(ccc(OC)c4OC)C23)cc1 (stereo not given),> 79 µM (inactive)
6,Cc1ccc(S(=O)(=O)N2CCN(C(=O)c3cc(=O)[nH]c4ccccc34)CC2)cc1C,> 79 µM (inactive)
7,COc1ccc(-n2cc(-c3ccccc3)c3c(NCc4ccccc4)ncnc32)cc1,> 79 µM (inactive)
8,COc1ccc2c(c1OC)C(=O)N1c3ccccc3C(=O)N(c3ccc(F)cc3)C21 (stereo not given),35.6 µM (inactive)
9,CC(C)CCNC(=O)C(c1ccc(O)cc1)N(C(=O)c1snc(C(N)=O)c1N)c1ccccc1F (stereo not given),> 79 µM (inactive)
10,COCCn1c(SC(C(=O)Nc2cc(C)ccc2C)c2ccccc2)nc2ccccc2c1=O (stereo not given),> 79 µM (inactive)
11,COc1cccc(NC(=O)C(Sc2nc3ccccc3c(=O)n2CC(C)C)c2ccccc2)c1 (stereo not given),> 79 µM (inactive)
12,COc1ccccc1N1C(=O)c2ccccc2N2C(=O)c3c(ccc(OC)c3OC)C12 (stereo not given),77.1 µM (inactive)
13,Cc1ccc(C)c(S(=O)(=O)N2CCN(C(=O)c3cc4cc(C)ccc4nc3C)CC2)c1,> 79 µM (inactive)
14,COc1ccc(-c2cc(C(=O)Nc3ccccc3)c3ccccc3n2)cc1OC,> 79 µM (inactive)
15,CCN(CC)C(=O)C(=O)c1c(-c2ccccc2)[nH]c2ccccc12,> 79 µM (inactive)
16,COc1cccc(CN(C)C(=O)c2cc(-c3ccccc3)nc3ccc(C)cc23)c1OC,> 79 µM (inactive)
17,Cc1ccc2cc(CN(C)S(=O)(=O)c3ccc(F)cc3)c(=O)[nH]c2c1,> 79 µM (inactive)
18,Cc1ccc(-c2[nH]c3ccccc3c2C(=O)C(=O)N(C)C)cc1,> 79 µM (inactive)
19,O=C(C(=O)N1CCCC1)c1c(-c2ccccc2)[nH]c2ccccc12,> 79 µM (inactive)
20,Cc1ccc(NC(=O)CN(C)C(=O)c2cc(-c3cccs3)nn2-c2ccccc2)cc1,> 79 µM (inactive)
21,Cc1ccccc1N(C(=O)c1snc(C(N)=O)c1N)C(C(=O)NCc1ccc(F)cc1)c1ccc(O)cc1 (stereo not given),> 79 µM (inactive)
22,Cc1ccc(S(=O)(=O)N(Cc2cccnc2)Cc2cc3ccccc3[nH]c2=O)cc1,> 79 µM (inactive)
23,CCCN(CC(=O)Nc1ccccc1OC)C(=O)c1cc(-c2cccs2)nn1-c1ccccc1,> 79 µM (inactive)

row,Structure (SMILES),IC50
1,COc1ccc2c(c1OC)C(=O)N1c3ccccc3C(=O)N(c3ccccc3C)C21 (stereo not given),> 79 µM (inactive)
2,O=C(C(=O)N1CCCCC1)c1c(-c2ccccc2)[nH]c2ccccc12,> 79 µM (inactive)
3,COc1cccc(CN(C)C(=O)c2cc(-c3ccc(OC)c(OC)c3)nc3ccccc23)c1,> 79 µM (inactive)
4,O=c1[nH]c2ccccc2cc1CN(Cc1ccco1)S(=O)(=O)c1ccc(F)cc1,> 79 µM (inactive)
5,NC(=O)c1nsc(C(=O)N(c2cccc(F)c2)C(C(=O)NC2CCCC2)c2ccc(O)cc2)c1N (stereo not given),> 79 µM (inactive)
6,CCCn1c(SC(C(=O)Nc2cccc(OC)c2)c2ccccc2)nc2ccccc2c1=O (stereo not given),> 79 µM (inactive)
7,COc1ccc(NC(=O)CN(C)C(=O)c2cc(-c3cccs3)nn2-c2ccccc2)cc1,> 79 µM (inactive)
8,CCN(CC)S(=O)(=O)c1cc(C(=O)N2CCN(Cc3cccc4cccnc34)CC2)ccc1C,> 79 µM (inactive)
9,COc1ccc2cc(C(=O)N3CCN(S(=O)(=O)c4cc(C)ccc4C)CC3)c(C)nc2c1,> 79 µM (inactive)
10,COc1ccc(-n2cc(-c3ccccc3)c3c(N4CCCC4)ncnc32)cc1,> 79 µM (inactive)
11,COc1ccc2c(=O)c(C(=O)N3CCN(S(=O)(=O)c4c(C)cc(C)cc4C)CC3)c[nH]c2c1,> 79 µM (inactive)
12,COc1ccc(-c2cc(C(=O)NCc3ccco3)c3ccccc3n2)cc1OC,> 79 µM (inactive)
13,COc1ccc(-n2cc(-c3ccccc3)c3c(N4CCCCC4)ncnc32)cc1,> 79 µM (inactive)
14,COc1ccc2c(c1OC)C(=O)N1c3ccccc3C(=O)N(c3cccc(Br)c3)C21 (stereo not given),1.89 µM
15,COCCNC(=O)C(c1ccc(O)cc1)N(C(=O)c1snc(C(N)=O)c1N)c1ccccc1F (stereo not given),> 79 µM (inactive)
16,Cc1ccc2cc(CN(Cc3cccnc3)S(=O)(=O)c3ccc(F)cc3)c(=O)[nH]c2c1,> 79 µM (inactive)
17,CCN(CC(=O)Nc1ccc(OC)cc1)C(=O)c1cc(-c2cccs2)nn1-c1ccccc1,> 79 µM (inactive)
18,COc1ccc(S(=O)(=O)N(Cc2cccnc2)Cc2cc3ccccc3[nH]c2=O)cc1,> 79 µM (inactive)
19,COc1cc(-c2cc(C(=O)Nc3cccc(C(C)=O)c3)c3ccccc3n2)cc(OC)c1OC,2.08 µM
20,COc1ccc(-c2cc(C(=O)N(C)C)c3ccccc3n2)cc1OC,> 79 µM (inactive)
21,O=C1c2ccccc2N2C(=O)c3ccccc3[C@H]2N1c1ccccc1,> 79 µM (inactive)
22,COc1ccc(-c2cc(C(=O)NCc3ccccc3)c3ccccc3n2)cc1OC,> 79 µM (inactive)
